Source: the NIST ThermoML archive (doi:10.1021/je100175j)

Experiments:
[1] = for Triple point temperature: DTA
[2] = Molar enthalpy of transition or fusion; conditions: Crystal; DSC

CN(C)C(=O)c1ccccc1 [N,N-dimethylbenzamide]
[1], Crystal
Conditions | vapor or sublimation pressure [kPa]
297.04 K | 0.00054
299.03 K | 0.00069
301.02 K | 0.00086
303.02 K | 0.0011
305 K | 0.00138
307 K | 0.00171
308.98 K | 0.00215
310.98 K | 0.00269
312.98 K | 0.00336
314.98 K | 0.00418

[1], Liquid, Closed cell (Static) method
Conditions | vapor or sublimation pressure [kPa]
301.98 K | 0.00134
303.99 K | 0.00162
305.97 K | 0.00195
307.96 K | 0.00232
310.43 K | 0.00289
312.3 K | 0.00343
314 K | 0.00399
316 K | 0.00472
317.97 K | 0.0056
319.95 K | 0.00658
321.94 K | 0.00776
323.93 K | 0.00909
325.88 K | 0.01066
327.91 K | 0.01239
329.85 K | 0.01439
331.88 K | 0.01676
333.84 K | 0.01949
335.85 K | 0.02238
337.8 K | 0.02598
339.82 K | 0.02969
341.77 K | 0.03432
343.8 K | 0.03916
345.73 K | 0.04503
347.77 K | 0.05151
349.68 K | 0.05866
351.75 K | 0.06697
353.64 K | 0.07571
355.7 K | 0.08611
357.62 K | 0.09722
359.68 K | 0.1102
361.66 K | 0.1244

Conditions | Triple point temperature [K]
[1], Crystal | 316.9

Conditions | Molar enthalpy of transition or fusion [kJ/mol]
[2] | 21.2

CNC(=O)c1ccccc1 [N-methylbenzamide]
[1], Liquid, Closed cell (Static) method
Conditions | vapor or sublimation pressure [kPa]
322.88 K | 0.00067
324.94 K | 0.00083
326.92 K | 0.00099
328.89 K | 0.00117
330.88 K | 0.0014
332.86 K | 0.00166
334.86 K | 0.00201
336.84 K | 0.00241
338.82 K | 0.00284
340.8 K | 0.00336
342.8 K | 0.00398
344.8 K | 0.0047
346.77 K | 0.00547
348.77 K | 0.0064
350.75 K | 0.00753
352.74 K | 0.00861
354.74 K | 0.01013
356.7 K | 0.01168
358.72 K | 0.01359
360.66 K | 0.01572
362.68 K | 0.01812
364.63 K | 0.02093
366.62 K | 0.02394
368.59 K | 0.0275
370.59 K | 0.03148
372.57 K | 0.03612
374.56 K | 0.04095
376.53 K | 0.04725
378.51 K | 0.05325
380.49 K | 0.06051
382.47 K | 0.06884
384.46 K | 0.07804
386.43 K | 0.08821
388.4 K | 0.101

[1], Crystal
Conditions | vapor or sublimation pressure [kPa]
324.88 K | 0.0005
326.83 K | 0.00063
328.93 K | 0.0008
330.82 K | 0.00098
332.75 K | 0.00121
334.8 K | 0.00152
336.82 K | 0.00189
338.85 K | 0.00235
340.81 K | 0.00284
342.75 K | 0.00348
344.79 K | 0.00426
345.79 K | 0.00471
346.8 K | 0.00528
347.77 K | 0.00575
348.76 K | 0.00631

Conditions | Triple point temperature [K]
[1], Crystal | 347.41

Conditions | Molar enthalpy of transition or fusion [kJ/mol]
[2] | 18.6
